Data published in ChEMBL document CHEMBL1201862, “PubChem BioAssay data set” (2004).
Calls of active or inactive are those of the source.

How the values were obtained:
P388 = assay: cells; type: functional; settings: Mus musculus
SN12K1 = assay: cells; type: functional; settings: Homo sapiens
P388/ADR = assay: cells; type: functional; settings: Mus musculus
[1] = Trypanosoma cruzi growth suppression in host cells – NIH3T3 host cells, beta-gal luminescence, confirmation (AID 2044); type: functional, cell-based;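 further: intracellular parasites grown in NIH/3T3 mouse fibroblasts as host cells; luminescent beta-galactosidase reporter signal from transgenic T. cruzi replicating inside host cells; inhibitors lower the luminescence signal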
[2] = reduction of Shn3 3'UTR-driven luciferase in osteoblasts – cell-based, Clone20 osteoblasts, firefly luciferase, cherry-picked, dose response (AID 624132); type: functional;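 further: firefly luciferase luminescence from reporter carrying the Shn3 3'UTR in osteoblasts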
[3] = non-specific 3'UTR reporter inhibition in Clone20-Shn3RL – cell-based, Renilla luciferase, cherry-picked, counter-screen for Shn3 inhibitor project, dose response (AID 624133); type: functional
[4] = loss of viability in HepG2 cells – cell-based, CellTiter-Glo, cherry-picked, cytotoxicity control for Shn3 inhibitor project, dose response (AID 624134); type: functional
[5] = NIH3T3 cell viability loss – ATP luminescence, mouse fibroblasts, counter-screen, dose response (AID 2010); type: functional, cell-based;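 further: cells exposed to compound for about 90 hours before reading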
[6] = target: T1, Heat shock factor protein 1 (Mus musculus, UniProt P38532); assay: decrease of HSF1-responsive luciferase luminescence – cell-based, NIH3T3, dose retest, confirmation (AID 2382); type: functional;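 further: NIH3T3 fibroblasts with HSF1-driven luciferase reporter stressed by proteasome inhibitor MG132; luminescence from HSF1-driven luciferase expression after 8 hours of MG132 stress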
T1 sequence (P38532 whole entry): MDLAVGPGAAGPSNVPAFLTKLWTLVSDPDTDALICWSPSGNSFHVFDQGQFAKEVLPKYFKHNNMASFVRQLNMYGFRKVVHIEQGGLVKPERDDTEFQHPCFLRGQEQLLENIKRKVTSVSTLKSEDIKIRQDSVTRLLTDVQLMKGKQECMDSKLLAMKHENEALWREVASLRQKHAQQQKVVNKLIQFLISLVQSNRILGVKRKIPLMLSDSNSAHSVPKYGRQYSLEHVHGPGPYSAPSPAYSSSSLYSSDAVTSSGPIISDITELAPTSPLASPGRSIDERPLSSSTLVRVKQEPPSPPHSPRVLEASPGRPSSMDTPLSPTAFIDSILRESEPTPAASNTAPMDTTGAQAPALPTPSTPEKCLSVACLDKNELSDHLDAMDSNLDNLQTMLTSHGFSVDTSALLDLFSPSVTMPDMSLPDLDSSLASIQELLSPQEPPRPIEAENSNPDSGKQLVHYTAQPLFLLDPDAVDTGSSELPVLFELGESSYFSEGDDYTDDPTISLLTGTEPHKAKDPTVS

[7] = target: FAD-linked sulfhydryl oxidase ALR (Homo sapiens, UniProt P55789); assay: ALR-catalysed DTT oxidation blockers – biochemical, H2O2 detection, luminescence, cherry-pick, dose response (AID 493248)
Sequence of FAD-linked sulfhydryl oxidase ALR (P55789 whole entry): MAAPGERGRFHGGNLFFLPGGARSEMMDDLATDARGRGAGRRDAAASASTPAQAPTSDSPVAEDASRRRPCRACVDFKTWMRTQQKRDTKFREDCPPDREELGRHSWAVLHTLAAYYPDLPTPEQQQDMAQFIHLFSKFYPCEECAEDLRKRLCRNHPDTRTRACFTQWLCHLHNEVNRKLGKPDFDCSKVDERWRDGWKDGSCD

[8] = test system: Streptococcus sp. 'group A'; assay: Streptococcus pyogenes SK(-)GAS viability under kanamycin – luminescence, BacTiterGlo, confirmation, counter-screen for streptokinase expression inhibitor project, dose response (AID 1900); type: functional, organism-based
Streptococcus = assay: GAS UMAA2166 growth inhibition – luminescence, BacTiterGlo, counter-screen for streptokinase expression inhibitor project, dose response (AID 1915); type: functional, organism-based;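 further: potency for reduction of bacterial viability or growth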
INS1 = assay: INS-1E survival protection against cytokine death – cell-based, luminescence, retest, dose response (AID 449756); type: functional; settings: Rattus norvegicus;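 further: cell death triggered by IL-1 beta plus TNF-alpha plus IFN-gamma mixture; protective hits raise ATP signal compared with cytokine alone wells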
[9] = microbe, parasite or virus in culture; type: functional; settings: Mycobacterium tuberculosis
[10] = target: T2, Calpain-2 catalytic subunit (Sus scrofa, UniProt P43367); assay: m-calpain protease blockers, concentration series – biochemical, fluorogenic peptide substrate, dose response (AID 1420); type: functional
T2 sequence (P43367 whole entry): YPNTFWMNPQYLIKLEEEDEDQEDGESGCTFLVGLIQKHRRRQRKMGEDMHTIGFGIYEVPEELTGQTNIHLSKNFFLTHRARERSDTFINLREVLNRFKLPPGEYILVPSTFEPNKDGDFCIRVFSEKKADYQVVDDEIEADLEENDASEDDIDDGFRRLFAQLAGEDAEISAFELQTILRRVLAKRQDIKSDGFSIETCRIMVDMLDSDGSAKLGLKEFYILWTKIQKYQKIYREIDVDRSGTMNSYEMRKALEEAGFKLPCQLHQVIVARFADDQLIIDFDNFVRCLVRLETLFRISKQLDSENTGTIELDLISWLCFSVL

[11] = target: T3, High affinity choline transporter 1 (Homo sapiens, UniProt Q9GZV3); assay: human choline transporter blockers, potency – cell-based, 5-point CRC, membrane potential dye, dose response (AID 504840); type: functional
T3 sequence (Q9GZV3 whole entry): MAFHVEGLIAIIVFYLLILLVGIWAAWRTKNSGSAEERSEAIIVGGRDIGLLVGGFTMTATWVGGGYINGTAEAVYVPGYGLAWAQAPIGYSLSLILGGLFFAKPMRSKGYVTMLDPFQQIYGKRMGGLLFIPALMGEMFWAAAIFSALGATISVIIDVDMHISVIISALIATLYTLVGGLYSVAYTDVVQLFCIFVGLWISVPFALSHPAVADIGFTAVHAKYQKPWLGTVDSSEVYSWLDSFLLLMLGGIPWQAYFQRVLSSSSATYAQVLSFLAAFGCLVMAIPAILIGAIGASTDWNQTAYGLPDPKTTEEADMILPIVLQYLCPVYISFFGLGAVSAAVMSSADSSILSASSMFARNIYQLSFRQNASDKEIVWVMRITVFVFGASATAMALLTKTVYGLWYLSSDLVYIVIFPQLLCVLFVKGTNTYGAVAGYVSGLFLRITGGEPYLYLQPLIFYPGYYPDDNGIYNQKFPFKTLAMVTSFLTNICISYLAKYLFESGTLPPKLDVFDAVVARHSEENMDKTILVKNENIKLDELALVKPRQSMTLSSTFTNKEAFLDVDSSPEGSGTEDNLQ

[12] = viability of PTEN-deleted HCT116 cells – cell-based, HCT116 PTEN knockout, dose response (AID 1047); type: functional;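 further: HCT116 colon tumor cells with PTEN knocked out; cells exposed to compound for 60 hours before readout; potency for loss of cell viability measured by luminescence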
[13] = viability of HCT116 lacking mutant beta-catenin – cell-based, human colon tumor, dose response (AID 1045); type: functional;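 further: HCT116 colon tumor cells with beta catenin knocked out; cells exposed to compound for 60 hours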
Cytochrome P450 1A2 = target: T4, Cytochrome P450 1A2 (Homo sapiens, UniProt P05177);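 further: PubChem cytochrome P450 panel assay, CYP1A2 panel member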
T4 sequence (P05177 whole entry): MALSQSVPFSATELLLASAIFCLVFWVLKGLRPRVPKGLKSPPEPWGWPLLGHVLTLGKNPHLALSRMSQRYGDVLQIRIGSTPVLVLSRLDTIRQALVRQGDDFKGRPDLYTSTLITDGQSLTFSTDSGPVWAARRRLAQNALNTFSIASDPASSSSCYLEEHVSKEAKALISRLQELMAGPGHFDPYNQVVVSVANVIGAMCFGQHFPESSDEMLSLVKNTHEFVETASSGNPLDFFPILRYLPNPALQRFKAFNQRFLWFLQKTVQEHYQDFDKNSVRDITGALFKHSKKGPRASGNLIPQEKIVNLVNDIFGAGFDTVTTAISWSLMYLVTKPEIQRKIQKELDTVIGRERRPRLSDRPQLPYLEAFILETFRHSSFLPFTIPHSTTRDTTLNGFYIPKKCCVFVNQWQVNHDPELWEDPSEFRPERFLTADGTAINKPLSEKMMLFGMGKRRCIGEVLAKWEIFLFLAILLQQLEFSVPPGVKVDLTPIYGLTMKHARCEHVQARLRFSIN

Cytochrome P450 2D6 = Cytochrome P450 2D6 (Homo sapiens, UniProt P10635);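 further: CYP2D6 member of a cytochrome P450 panel assay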
Sequence of Cytochrome P450 2D6 (P10635 whole entry): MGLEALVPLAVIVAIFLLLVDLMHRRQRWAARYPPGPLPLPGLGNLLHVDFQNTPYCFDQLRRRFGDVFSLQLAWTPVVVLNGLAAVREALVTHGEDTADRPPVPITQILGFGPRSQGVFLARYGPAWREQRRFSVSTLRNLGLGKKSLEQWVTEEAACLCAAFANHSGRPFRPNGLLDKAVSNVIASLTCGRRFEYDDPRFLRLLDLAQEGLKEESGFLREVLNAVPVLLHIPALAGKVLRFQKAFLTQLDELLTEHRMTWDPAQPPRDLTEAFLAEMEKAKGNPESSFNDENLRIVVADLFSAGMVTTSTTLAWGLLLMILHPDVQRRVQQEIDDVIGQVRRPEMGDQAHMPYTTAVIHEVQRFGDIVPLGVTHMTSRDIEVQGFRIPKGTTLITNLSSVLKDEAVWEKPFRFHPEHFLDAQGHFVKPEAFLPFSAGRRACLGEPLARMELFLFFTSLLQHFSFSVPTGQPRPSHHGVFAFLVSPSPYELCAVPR

**Q.** Which GI50 (P388) does the source give for `C[C@H](CN1CC(=O)NC(=O)C1)N1CC(=O)NC(=O)C1` here?
**A.** 319 nM (active)

**Q.** What about the GI50 (SN12K1) of the same compound?
**A.** 36.8 µM (inactive)

**Q.** And the GI50 (P388/ADR)?
**A.** 13.9 µM (inactive)

**Q.** For `CCn1c(N2CCN(S(=O)(=O)c3ccc(Cl)cc3)CC2)nc2ccccc21`, which EC50 [1] is on record?
**A.** 1.55 µM (active)

**Q.** And the AC50 [2]?
**A.** 9.14 µM (active)

**Q.** And the AC50 [3]?
**A.** 9.17 µM (active)

**Q.** What about the AC50 [4] of the same compound?
**A.** 58.3 µM (active)

**Q.** What about the EC50 [5] of the same compound?
**A.** > 60 µM (not active)

**Q.** With `CNC(SCc1cc2c(cc1Cl)OCO2)=C1C(=O)N(C)C(=O)N(C)C1=O` as the compound, how does the EC50 [6] read?
**A.** > 195 µM (not active)

**Q.** What about the AC50 [7] of the same compound?
**A.** 1.56 µM (active)

**Q.** For `COc1ccc(C(NC(C)=O)c2cc(Cl)c3cccnc3c2O)cc1OC` (stereo not drawn), which EC50 [1] is on record?
**A.** 0.941 µM (active)

**Q.** And the AC50 [2]?
**A.** 3.45 µM (active)

**Q.** And the AC50 [3]?
**A.** 2.98 µM (active)

**Q.** And the EC50 [8]?
**A.** 3.99 µM (active)

**Q.** And the EC50 (Streptococcus)?
**A.** 3.67 µM (active)

**Q.** And the AC50 (INS1)?
**A.** 2.3 µM (active)

**Q.** What about the AC50 [4] of the same compound?
**A.** 3.12 µM (active)

**Q.** What about the EC50 [5] of the same compound?
**A.** 1.01 µM (active)

**Q.** For `c1ccc(-c2nc3nonc3nc2-c2ccccc2)cc1`, which AC50 (INS1) is on record?
**A.** 1.15 µM (active)

**Q.** What about the CC50 [9] of the same compound?
**A.** 17.8 µM (active)

**Q.** For `Cc1c(C(=O)c2ccc(N(C)C)cc2)c2ccccn2c1CCC#N`, which IC50 [10] is on record?
**A.** > 50 µM (not active)

**Q.** And the AC50 [7]?
**A.** 2.73 µM (active)

**Q.** With `COC(=O)c1cccc(NC(=O)c2ccc(S(=O)(=O)N3CCN(C)CC3)cc2)c1` as the compound, how does the IC50 [11] read?
**A.** 14.5 µM (active)

**Q.** Which IC50 [11] does the source give for `Cc1ccccc1N(C)S(=O)(=O)c1ccc2ncc(C(=O)NCC3CCCO3)c(O)c2c1` (stereo not drawn) here?
**A.** 12 µM (active)

**Q.** With `CCOc1ccc(NCc2nnc(SCC(=O)Nc3nc(-c4ccccc4)cs3)n2-c2ccccc2)cc1` as the compound, how does the EC50 [12] read?
**A.** 3.65 µM (active)

**Q.** What about the EC50 [13] of the same compound?
**A.** 3.28 µM (active)

**Q.** With `Cc1ccc(C)c(Oc2cc(NC(=O)CCCn3nc(C)c([N+](=O)[O-])c3C)cc([N+](=O)[O-])c2)c1` as the compound, how does the EC50 [12] read?
**A.** 21.1 µM (active)

**Q.** What about the EC50 [13] of the same compound?
**A.** 18.9 µM (active)

**Q.** For `Cc1nn(Cc2ccccc2Cl)c(C)c1NC(=O)c1noc2c1CCCCC2`, which IC50 [11] is on record?
**A.** 13.8 µM (active)

**Q.** What does the source list for `COc1cc2c(cc1OC)CN(c1nc(CN3CCOCC3)nc3sc4c(c13)CCC(C)C4)CC2` (stereo not drawn)?
**A.** EC50 [12]: 9.18 µM (active); EC50 [13]: 9.91 µM (active)

**Q.** What does the source list for `COC(=O)c1ccc2c(c1)C(=O)/C(=C/c1ccc(C)cc1)O2`?
**A.** EC50 [12]: 16.8 µM (active); EC50 [13]: 17.2 µM (active)

**Q.** What does the source list for `CCOC(=O)c1ccc(NC(=NS(=O)(=O)c2ccccc2C)c2ccccc2)cc1`?
**A.** EC50 [12]: 36.4 µM (active); EC50 [13]: 56.2 µM (active); AC50 (Cytochrome P450 1A2): 25.1 µM (inconclusive); AC50 (Cytochrome P450 2D6): 17.8 µM (inconclusive)

**Q.** Which IC50 [11] does the source give for `CN1CCCN(c2ncnc3scc(-c4ccc(F)cc4)c23)CC1` here?
**A.** 12.9 µM (active)
